Test results taken from patent US5140009A (Tap Pharmaceuticals, Inc., priority 1990, dated 1992).
Numbered stars: 1 amine (or outer) side, 2 acyl side, 3 side chain; on linkers, the order of the positions; unused ones are H or OH. Square brackets hold non-standard residues; d marks the D form. Peptide text beside a SMILES is read from it. * marks the point of attachment. Propanoyl(3-indol-3-yl) = O=C(CCc1c[nH]c2ccccc12)*; Propanoyl(3-(4-F-phenyl)) = O=C(CCc1ccc(F)cc1)*; Trp(5-F) = N[C@@H](Cc1c[nH]c2ccc(F)cc12)C(=O)O; Hydrocinnamoyl(2,4-F2) = O=C(CCc1ccc(F)cc1F)*; Propanoyl(3-(4-Cl-Ph)) = O=C(CCc1ccc(Cl)cc1)*; Propanoyl(3-(3-pyridyl)) = O=C(CCc1cccnc1)*; dPhe(4-Cl) = N[C@H](Cc1ccc(Cl)cc1)C(=O)O; Desaminotyrosyl = O=C(CCc1ccc(O)cc1)*; d1Nal = N[C@H](Cc1cccc2ccccc12)C(=O)O; dLys(iPr) = CC(C)NCCCC[C@@H](N)C(=O)O; Acetyl(3-pyridyl) = O=C(Cc1cccnc1)*; Lys(iPr) = CC(C)NCCCC[C@H](N)C(=O)O; NMeY = CN[C@@H](Cc1ccc(O)cc1)C(=O)O; dBta = N[C@H](Cc1csc2ccccc12)C(=O)O; Cha = N[C@@H](CC1CCCCC1)C(=O)O; Nicotinoyl = O=C(c1cccnc1)*; X3 = O=C(CCc1ccc2ccccc2c1)*; Morpholide = C1CN(*)CCO1; CO = O=C([*:1])[*:2]; azaGly = NNC(=O)O

Molecular target: T1, LHRH receptors (Rattus norvegicus, UniProt P30969)
T1 construct: Pituitary membranes containing LHRH receptors are prepared in batches from quick-frozen rat pituitaries; tissue Hilltop Labs; host or cells: rat pituitary membranes
T1 sequence (P30969 1-327): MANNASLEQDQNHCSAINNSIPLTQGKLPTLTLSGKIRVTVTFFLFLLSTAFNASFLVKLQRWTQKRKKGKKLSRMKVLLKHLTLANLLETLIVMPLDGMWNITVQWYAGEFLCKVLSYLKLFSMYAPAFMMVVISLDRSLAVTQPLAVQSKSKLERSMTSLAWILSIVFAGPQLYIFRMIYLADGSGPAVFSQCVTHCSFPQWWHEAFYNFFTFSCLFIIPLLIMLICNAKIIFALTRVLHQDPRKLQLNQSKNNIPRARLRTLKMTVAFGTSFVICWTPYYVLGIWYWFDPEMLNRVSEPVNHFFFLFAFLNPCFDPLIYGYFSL
Assay: Receptor Binding (radioligand receptor binding assay)
Details: table 3; rat pituitary membranes, radioiodinated [D-Leu^6 -des Gly^10 ]-LHRH ethyl amide 50 pM, 2 hours at 4° C.; read-out: Receptor Binding pkI (converted)

Structure (SMILES)	Ki
CCNC(=O)[C@@H]1CCCN1C(=O)[C@H](CCCNC(=N)N)NC(=O)[C@H](CC(C)C)NC(=O)[C@@H](CC(C)C)NC(=O)[C@H](Cc1ccc(O)cc1)NC(=O)[C@H](CO)NC(=O)Cc1cccnc1 [Compound 40, (4-9)[N-(3-Pyridylacetyl)-Ser4-D-Leu^6 -Pro^9 -NHEt] LHRH] ({Acetyl(3-pyridyl)}-SY[dL]LRP-NHEt)	4370 nM
CCNC(=O)[C@@H]1CCCN1C(=O)[C@H](CCCNC(=N)N)NC(=O)[C@H](CC(C)C)NC(=O)[C@@H](CCCCNC(C)C)NC(=O)[C@H](Cc1ccc(O)cc1)NC(=O)[C@H](CO)NC(=O)CCc1c[nH]c2ccccc12 [Compound 54, N-(3-(3-Indole)propionyl)-Ser-Tyr-D-Lys-(N-epsilon-isp)-Leu-Arg-Pro-NHEt] ({Propanoyl(3-indol-3-yl)}-SY[dLys(iPr)]LRP-NHEt)	20.4 nM
CCNC(=O)[C@@H]1CCCN1C(=O)[C@H](CCCNC(=N)N)NC(=O)[C@H](CC(C)C)NC(=O)[C@@H](Cc1c[nH]c2ccccc12)NC(=O)[C@H](Cc1ccc(O)cc1)NC(=O)[C@H](CO)NC(=O)[C@H](Cc1c[nH]c2ccccc12)NC(=O)[C@H](Cc1ccccc1)NC(=O)CCc1ccc2ccccc2c1 [Compound 133, N-3-(2-Naphthyl)propionyl-Phe-Trp-Ser-Tyr-D-Trp-Leu-Arg -Pro-NHEt] (X3-FWSY[dW]LRP-NHEt)	1.45 nM
CCNC(=O)[C@@H]1CCCN1C(=O)[C@H](CCCNC(=N)N)NC(=O)[C@H](CC(C)C)NC(=O)[C@@H](CCCCN)NC(=O)[C@H](Cc1ccc(O)cc1)NC(=O)[C@H](CO)NC(=O)CCc1c[nH]c2ccccc12 [Compound 55, N-(3-(3-Indole)propionyl)-Ser-Tyr-D-Lys-Leu-Arg-Pro-NHEt] ({Propanoyl(3-indol-3-yl)}-SY[dK]LRP-NHEt)	15.1 nM
CCNC(=O)[C@@H]1CCCN1C(=O)[C@H](CCCNC(=N)N)NC(=O)[C@H](CC(C)C)NC(=O)[C@@H](Cc1c[nH]c2ccccc12)NC(=O)[C@H](Cc1ccc(O)cc1)NC(=O)[C@H](CO)NC(=O)CCc1ccc(O)cc1 [Compound 76, (4-9)[N-(3-(4-Hydroxyphenyl)propionyl) -Ser^4 -D-Trp^6 -Pro^9 NHEt]LHRH] (Desaminotyrosyl-SY[dW]LRP-NHEt)	43.7 nM
CCNC(=O)[C@@H]1CCCN1C(=O)[C@H](CCCN=C(N)N)NC(=O)[C@H](CC(C)C)NC(=O)[C@@H](CC(C)C)NC(=O)[C@H](Cc1ccc(O)cc1)NC(=O)[C@H](CO)NC(=O)CCc1cccnc1 [Compound 41, (4-9)[N-(3-(3-Pyridyl)propionyl)-Ser^4 -D-Leu^6 -Pro^9 -NHEt]LHRH] ({Propanoyl(3-(3-pyridyl))}-SY[dL]LRP-NHEt)	1740 nM

Same assay, conditions: table 4; rat pituitary membranes, radioligand 50 pM, 2 hours at 4° C.; read-out: Receptor Binding pkI (converted)

Structure (SMILES)	Ki
CCNC(=O)[C@@H]1CCCN1C(=O)[C@H](CCCN=C(N)N)NC(=O)[C@H](CC(C)C)NC(=O)[C@@H](Cc1c[nH]c2ccccc12)NC(=O)[C@H](Cc1ccc(O)cc1)N(C)C(=O)[C@H](CO)NC(=O)[C@@H](Cc1c[nH]c2ccccc12)NC(=O)CCc1ccc(Cl)cc1 [Compound 156, (3-9)[N-(3-(4-Chlorophenyl)propionyl) -D-Trp^3,6 -NMeTyr^5 -Pro^9 NHEt]LHRH] ({Propanoyl(3-(4-Cl-Ph))}-[dW]S[NMeY][dW]LRP-NHEt)	0.0692 nM
CC(C)C[C@H](NC(=O)[C@@H](CCCCNC(C)C)NC(=O)[C@H](Cc1ccc(O)cc1)N(C)C(=O)[C@H](CO)NC(=O)[C@@H](Cc1csc2ccccc12)NC(=O)CCc1ccc(F)cc1)C(=O)N[C@@H](CCCNC(=N)N)C(=O)N1CCC[C@H]1C(=O)N[C@H](C)C(N)=O [Compound 198, (3-10)[N-(3-(4-Fluorophenyl)propionyl)-D-3-Bal^3 -NMeTyr^5 -D-Lys^6 (N-epsilon-isopropyl)-D-Ala^10]LHRH] ({Propanoyl(3-(4-F-phenyl))}-[dBta]S[NMeY][dLys(iPr)]LRP[dA]-NH2)	0.00933 nM
CC(C)C[C@H](NC(=O)[C@@H](CCCCNC(=O)c1cccnc1)NC(=O)[C@H](Cc1ccccc1)NC(=O)[C@H](CO)NC(=O)[C@@H](Cc1cccc2ccccc12)NC(=O)CCc1ccc(F)cc1)C(=O)N[C@@H](CCCCNC(C)C)C(=O)N1CCC[C@H]1C(=O)N[C@H](C)C(N)=O [Compound 252, (3-10)[N-(3-(4-Fluorophenyl)propionyl)-D-1-Nal^3 -Phe^5 -D-Lys^6 (N-epsilon-nicotinyl)-Lys^8 (N-epsilon-isopropyl)-D-Ala^10]LHRH] ({Propanoyl(3-(4-F-phenyl))}-[d1Nal]SF[dK](Nicotinoyl)L[Lys(iPr)]P[dA]-NH2)	0.0132 nM
C[C@@H](NC(=O)[C@@H]1CCCN1C(=O)[C@H](CCCNC(=N)N)NC(=O)[C@H](CC1CCCCC1)NC(=O)[C@@H](CCCCN)NC(=O)[C@H](Cc1ccc(O)cc1)N(C)C(=O)[C@H](CO)NC(=O)[C@@H](Cc1cccc2ccccc12)NC(=O)CCc1ccc(F)cc1)C(N)=O [Compound 185, (3-10)[N-(3-(4-Fluorophenyl)propionyl)-D-1-Nal^3 -NMeTyr^5 -D-Lys^6 -Cha^7 -D-Ala^10]LHRH] ({Propanoyl(3-(4-F-phenyl))}-[d1Nal]S[NMeY][dK][Cha]RP[dA]-NH2)	0.0155 nM
CCNC(=O)[C@@H]1CCCN1C(=O)[C@H](CCCN=C(N)N)NC(=O)[C@H](CC(C)C)NC(=O)[C@@H](Cc1c[nH]c2ccccc12)NC(=O)[C@H](Cc1ccc(O)cc1)NC(=O)[C@H](CO)NC(=O)[C@H]1CCCN1C(=O)CCc1ccc(F)cc1 [Compound 147, (3-9)[N-(3-(4-Fluorophenyl)propionyl) -D-Pro^3 -D-Trp^6 -Pro^9 NHEt]LHRH] ({Propanoyl(3-(4-F-phenyl))}-[dP]SY[dW]LRP-NHEt)	0.02 nM
CC(C)C[C@H](NC(=O)[C@@H](CCCCN)NC(=O)[C@H](Cc1ccc(O)cc1)N(C)C(=O)[C@H](CO)NC(=O)[C@@H](Cc1c[nH]c2ccccc12)NC(=O)CCc1ccc(F)cc1)C(=O)N[C@@H](CCCNC(=N)N)C(=O)N1CCC[C@H]1C(=O)N[C@H](C)C(N)=O [Compound 173, (3-10)[N-(3-(4-Fluorophenyl)propionyl)-D-Trp^3 -NMeTyr^5 -D-Lys^6 -D-Ala^10]LHRH] ({Propanoyl(3-(4-F-phenyl))}-[dW]S[NMeY][dK]LRP[dA]-NH2)	0.00575 nM
CC(C)C[C@H](NC(=O)[C@@H](CCCCN)NC(=O)[C@H](Cc1ccc(O)cc1)N(C)C(=O)[C@H](CO)NC(=O)[C@@H](Cc1ccc(Cl)cc1)NC(=O)CCc1ccc(F)cc1)C(=O)N[C@@H](CCCNC(=N)N)C(=O)N1CCC[C@H]1C(=O)N[C@H](C)C(N)=O [Compound 175, (3-10)[N-(3-(4-Fluorophenyl)propionyl)-D-4-Cl-Phe^3 -NMeTyr^5 -D-Lys^6 -D-Ala^10]LHRH] ({Propanoyl(3-(4-F-phenyl))}-[dPhe(4-Cl)]S[NMeY][dK]LRP[dA]-NH2)	0.00631 nM
CCNC(=O)[C@@H]1CCCN1C(=O)[C@H](CCCN=C(N)N)NC(=O)[C@H](CC(C)C)NC(=O)[C@@H](Cc1c[nH]c2ccccc12)NC(=O)[C@H](Cc1ccc(O)cc1)NC(=O)[C@H](CO)NC(=O)[C@@H](Cc1cccc2ccccc12)NC(=O)CCc1ccc(F)cc1 [Compound 145, (3-9)[N-(3-(4-Fluorophenyl)propionyl) -D-1-Nal^3 -D-Trp^6 -Pro^9 NHEt]LHRH] ({Propanoyl(3-(4-F-phenyl))}-[d1Nal]SY[dW]LRP-NHEt)	0.0251 nM
CC(C)C[C@H](NC(=O)[C@@H](CCCCNC(=O)c1cccnc1)NC(=O)[C@H](CCCCNC(=O)NN)NC(=O)[C@H](CO)NC(=O)[C@@H](Cc1cccc2ccccc12)NC(=O)CCc1ccc(F)cc1)C(=O)N[C@@H](CCCNC(=N)N)C(=O)N1CCC[C@H]1C(=O)N[C@H](C)C(N)=O [Compound 212, N-(3-(4-Fluorophenyl)propionyl)-D-1-Nal-Ser-Lys(N-epsilon-hydrazinecarbonyl)-D-Lys(N-epsilon-nicotinyl)-Leu-Arg-Pro-D-AlaNH2] ({Propanoyl(3-(4-F-phenyl))}-[d1Nal]SK(azaGly)[dK](Nicotinoyl)LRP[dA]-NH2)	0.0339 nM
CCNC(=O)[C@@H]1CCCN1C(=O)[C@H](CCCN=C(N)N)NC(=O)[C@H](CC(C)C)NC(=O)[C@@H](Cc1c[nH]c2ccccc12)NC(=O)[C@H](Cc1ccc(O)cc1)N(C)C(=O)[C@H](CO)NC(=O)[C@@H](Cc1c[nH]c2ccccc12)NC(=O)CCc1ccc(F)cc1F [Compound 155, (3-9)[N-(3-(2,4-diFluorophenyl)propionyl) -D-Trp^3,6 -NMeTyr^5 -Pro^9 NHEt]LHRH] ({Hydrocinnamoyl(2,4-F2)}-[dW]S[NMeY][dW]LRP-NHEt)	0.049 nM
CCNC(=O)[C@@H]1CCCN1C(=O)[C@H](CCCNC(=N)N)NC(=O)[C@H](CC(C)C)NC(=O)[C@@H](Cc1c[nH]c2ccccc12)NC(=O)[C@H](Cc1ccc(O)cc1)NC(=O)[C@H](CO)NC(=O)[C@H](Cc1c[nH]c2ccc(F)cc12)NC(=O)CCc1ccc(F)cc1 [Compound 142, (3-9)[N-(3-(4-Fluorophenyl)propionyl) -5-F-Trp^3 -D-Trp^6 -Pro^9 NHEt]LHRH] ({Propanoyl(3-(4-F-phenyl))}-[Trp(5-F)]SY[dW]LRP-NHEt)	0.0724 nM
CC(C)C[C@H](NC(=O)[C@@H](Cc1c[nH]c2ccccc12)NC(=O)[C@H](Cc1ccc(O)cc1)N(C)C(=O)[C@H](CO)NC(=O)[C@@H](Cc1c[nH]c2ccccc12)NC(=O)[C@@H](Cc1cccc2ccccc12)NC(=O)N1CCOCC1)C(=O)N[C@@H](CCCNC(=N)N)C(=O)N1CCC[C@H]1C(=O)N[C@H](C)C(N)=O [Compound 220, (2-10)[N-(alpha-Morpholinocarbonyl)-D-1-Nal^2 -D-Trp^3,6 -NMeTyr^5 -D-Ala^10]LHRH] ({Morpholide-CO}-[d1Nal][dW]S[NMeY][dW]LRP[dA]-NH2)	0.17 nM
